The values below come from ChEMBL document CHEMBL3822454, “On the vasoprotective mechanisms underlying novel β-phosphorylated nitrones: Focus on free radical characterization, scavenging and NO-donation in a biological model of oxidative stress” (Eur J Med Chem, 2016).

The source made the active and inactive calls.

In general, EC50 refers to the midpoint of the concentration-response curve. One may read the IC50 as the concentration at which inhibition is half-maximal. Broadly, the IC10 is the concentration needed for an effect of 10%. In general, half-life refers to the time needed for the level to fall by half in the phase considered.

A short description of data set [1]: Cytotoxicity against BAECs assessed as decrease in total intracellular LDH content at 15 mM measured after 3 hrs by LDH assay relative to vehicle control. In kind it is cell-based, Bos taurus. More on the design: scale not given: the % may be the effect or the level left. To be noted: cattle, baec, 15000 µM.
Data set [2] concerns Aorta. The data set is described as follows: Vasoprotective activity against oxidative stress-induced impairment of ACh-stimulated vasorelaxation in Sprague-Dawley rat endothelium-intact aortic rings assessed as reduction in L-phenylephrine hydrochloride-induced contraction preincubated for 10 to 20 mins in presence of xanthine-xanthine oxidase system at 200 uM prior to L-phenylephrine hydrochloride addition relative to ACh. In kind it is functional.

The test system of data set [3] is Aorta. As to the kind of experiment: Potentiation of SNP-induced vasorelaxant activity in Sprague-Dawley rat endothelium-intact aortic rings assessed as reduction in L-phenylephrine hydrochloride-induced contraction at 200 uM relative to SNP. It counts as functional.
A short description of data set [4]: Cytotoxicity against BAEC assessed as decrease in total intracellular LDH content at 15 mM measured after 1 hr by LDH assay relative to vehicle-treated control. It counts as cell-based, Bos taurus. Also noted: scale not given: the % may be the effect or the level left. Particulars: cattle, 15000 µM.
Data set [5] deals with Aorta. As to the kind of experiment: Vasoprotective activity against oxidative stress-induced impairment of ACh-stimulated vasorelaxation in Sprague-Dawley rat endothelium-intact aortic rings assessed as reduction in L-phenylephrine hydrochloride-induced contraction preincubated for 10 to 20 mins in presence of xanthine-xanthine oxidase system prior to L-phenylephrine hydrochloride addition. In kind it is functional.

Data set [6] deals with Aorta. The data set is described as follows: Protection against NADPH-induced superoxide-mediated tissue damage in Sprague-Dawley rat endothelium-intact aortic rings assessed as methyl radical adduct formation pre-incubated for 30 mins at 200 uM in presence of DTC prior to NADPH addition measured after 60 mins followed by renewal of media with NADPH-compound mixture measured after 20 mins in presence of DPI by EPR spectroscopy. It counts as functional.

Data set [7] in a line: Antioxidant activity assessed as inhibition of […]-xanthine oxidase system-mediated superoxide formation measured over 7 mins by lucigenin-based chemiluminescence analysis. It counts as physicochemical.
Data set [8] relates to Aorta. The data set is described as follows: Toxicity in Sprague-Dawley rat endothelium-intact aortic rings at 15 mM measured after 20 mins. Particulars: 15000 µM.
Data set [9] concerns A549. The data set is described as follows: Cytotoxicity against human A549 cells assessed as reduction in cell viability measured after 48 hrs by MTT assay. To be noted: A549, 48 h. In kind it is cell-based.
Data set [10] deals with Xanthine dehydrogenase/oxidase (Homo sapiens, UniProt P47989). The data set is described as follows: Inhibition of xanthine oxidase (unknown origin) using xanthine as substrate assessed as inhibition of uric acid formation at 1 to 100 uM after 30 mins by spectrophotometric method. To be noted: 0.5 h.
Chain of Xanthine dehydrogenase/oxidase (P47989 whole entry): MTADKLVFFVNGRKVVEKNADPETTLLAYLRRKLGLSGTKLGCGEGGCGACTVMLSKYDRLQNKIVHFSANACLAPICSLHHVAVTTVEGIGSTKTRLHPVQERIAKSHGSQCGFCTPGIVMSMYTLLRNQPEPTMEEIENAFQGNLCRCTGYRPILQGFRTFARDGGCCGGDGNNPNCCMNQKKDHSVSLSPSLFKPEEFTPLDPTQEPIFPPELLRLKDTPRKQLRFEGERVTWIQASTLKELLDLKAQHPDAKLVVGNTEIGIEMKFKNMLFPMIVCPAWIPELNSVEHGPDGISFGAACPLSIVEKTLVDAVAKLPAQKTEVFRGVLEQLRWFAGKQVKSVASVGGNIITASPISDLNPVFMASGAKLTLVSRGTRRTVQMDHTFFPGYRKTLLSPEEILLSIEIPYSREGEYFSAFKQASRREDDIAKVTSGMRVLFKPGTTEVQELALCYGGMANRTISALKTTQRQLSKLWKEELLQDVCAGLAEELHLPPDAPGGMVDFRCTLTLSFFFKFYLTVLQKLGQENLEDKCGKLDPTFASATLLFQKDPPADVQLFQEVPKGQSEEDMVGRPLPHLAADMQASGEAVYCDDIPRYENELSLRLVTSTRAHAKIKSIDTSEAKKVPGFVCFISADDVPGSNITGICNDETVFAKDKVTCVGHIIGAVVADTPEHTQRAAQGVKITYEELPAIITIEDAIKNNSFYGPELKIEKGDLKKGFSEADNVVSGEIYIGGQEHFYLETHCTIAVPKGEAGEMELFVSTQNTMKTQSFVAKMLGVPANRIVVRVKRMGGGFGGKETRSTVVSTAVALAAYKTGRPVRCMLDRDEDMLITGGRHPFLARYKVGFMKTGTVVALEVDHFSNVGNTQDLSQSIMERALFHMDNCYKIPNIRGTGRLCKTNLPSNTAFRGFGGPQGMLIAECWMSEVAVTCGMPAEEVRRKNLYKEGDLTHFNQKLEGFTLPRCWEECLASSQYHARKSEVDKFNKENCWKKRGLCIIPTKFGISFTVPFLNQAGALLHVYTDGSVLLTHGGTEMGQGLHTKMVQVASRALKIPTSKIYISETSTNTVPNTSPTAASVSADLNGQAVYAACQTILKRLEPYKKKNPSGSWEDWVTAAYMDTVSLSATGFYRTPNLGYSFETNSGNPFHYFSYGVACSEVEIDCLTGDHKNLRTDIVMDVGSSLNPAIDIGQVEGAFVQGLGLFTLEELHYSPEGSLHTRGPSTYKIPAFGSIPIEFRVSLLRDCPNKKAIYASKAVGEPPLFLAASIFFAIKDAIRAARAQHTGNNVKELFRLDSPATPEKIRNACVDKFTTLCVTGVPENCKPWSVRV
Data set [11] is described as follows: Antioxidant activity assessed as AAPH free radical scavenging activity measured as trolox equivalent by TRAP assay. In kind it is physicochemical.
Data set [12] has as its system Aorta. As to the kind of experiment: Protection against superoxide-mediated tissue damage in Sprague-Dawley rat endothelium-intact aortic rings assessed as methyl radical adduct formation preincubated for 30 mins at 200 uM in presence of DTC measured after 4 days by EPR spectroscopy. It counts as functional.
The nature of data set [13]: Cytotoxicity against BAEC assessed as reduction in cell viability measured after 24 hrs by MTT assay. To be noted: cattle. More on the design: species or system Bos taurus. (In general: Tetrazolium dyes change colour on reduction, which living cells bring about.)
Data set [14] deals with Aorta. The data set is described as follows: Protection against NADPH-induced superoxide-mediated tissue damage in Sprague-Dawley rat endothelium-intact aortic rings assessed as inhibition of protein carbonyl formation at 200 uM pre-incubated for 30 mins in presence of DTC prior to NADPH addition measured after 60 mins using 7-hydrazino-4-nitrobenzo-2,1,3-oxadiazole by fluorimetric analysis. In kind it is functional.

In data set [15] the test system is Aorta. The data set is described as follows: Protection against NADPH-induced superoxide-mediated tissue damage in Sprague-Dawley rat endothelium-intact aortic rings assessed as decomposition of methyl radical adduct preincubated for 30 mins at 200 uM in presence of DTC prior to NADPH addition after 60 mins followed by renewal of media with NADPH-compound mixture measured after 4 days by EPR spectroscopy relative to control. It counts as functional.

Data set [16] has as its system A549. As to the kind of experiment: Cytotoxicity against human A549 cells assessed as reduction in cell viability measured after 48 hrs by luminescence-based ATP assay. Particulars: A549, 48 h.
In data set [17] the test system is A549. As to the kind of experiment: Cytotoxicity against human A549 cells assessed as reduction in cell viability measured after 24 hrs by MTT assay. To be noted: a549, 24 h. In kind it is cell-based.
The subject of data set [18] is A549. As to the kind of experiment: Cytotoxicity against human A549 cells assessed as reduction in cell viability measured after 48 hrs by FMCA assay. To be noted: A549, 48 h. It counts as cell-based.
Data set [19] is described as follows: Antioxidant activity assessed as DPPH scavenging activity measured after 3 mins by spectrophotometric method. It counts as physicochemical. (DPPH is a stable violet radical that fades when it is reduced.)
Data set [20] in a line: Induction of nitric oxide release in water using Fe2+-MGD2 as nitric oxide trap at pH 6.56 measured 70 mins post UV-photolysis in dark condition by EPR spectroscopy. It counts as physicochemical. Particulars: buffer, pH 6.56, 70 min.
Data set [21] is described as follows: Induction of nitric oxide release in water using Fe2+-MGD2 as nitric oxide trap at pH 6.56 incubated in ambient light for 4.5 hrs by EPR spectroscopy. To be noted: buffer, pH 6.56, 4.5 h. It counts as physicochemical.
The nature of data set [22]: Cytotoxicity against BAECs assessed as reduction in cell viability measured after 24 hrs by neutral red assay. To be noted: Bos taurus, BAEC.
A short description of data set [23]: Half life of the compound in phosphate buffer at pH 6 by UV-illumination. It counts as ADME.

Turning to `CCOP(=O)(OCC)C(C)(C)/[N+]([O-])=C/c1cc(OC)c(O)c(OC)c1`, the Activity in [1] is 8%; in [4] it was < 10%; with Aorta [8], “Non-toxic”; in data set [11], 1.44 equiv; in the data set on Aorta [15] it was < 5%. Also, the Rmax in the data set with Aorta [2] is 77%; with Aorta [3], 101%. The EC50 in the data set on Aorta [5] was 0.0676 µM; in [19], 0.19 mM. Further, the outcome with Aorta [6] and with Aorta [12] was inactive. Also, the concentration for half-maximal inhibition (IC50) in [7] turned out to be 0.0721 mM; in the data set with A549 [9], 15.3 mM; with A549 [16] it was 14.8 mM; with A549 [18], 12 mM. Besides, in data set [10], the “inhibition (INH)” value is “Not Active”. Further, the IC10 in data set [13] is 2.6 mM; with A549 [17] it was 6.1 mM. The inhibition entry in the data set on Aorta [14] is “Active”.
On to `CCOP(=O)(OCC)C(C)(C)/[N+]([O-])=C/c1ccc(Cl)cc1`, for which the result in data set [20] and in data set [21] was Active.
Consider `CC(C)(C)/[N+]([O-])=C/c1ccccc1`, for which the Activity is 10% in [1], 0.02 equiv in data set [11], “Not Active” in data set [20] and 25% in the data set on Aorta [15]. Moreover, the Rmax came to 62% with Aorta [2] and 98% in the data set with Aorta [3]. The figures for the EC50 (with Aorta [5]; in [19]) were 0.174 µM and > 1 mM, respectively. For the same molecule, the IC50 in data set [7] is > 4 mM; with A549 [9], 10.8 mM; in data set [22], 9.4 mM; in the data set on A549 [16], 9.6 mM; with A549 [18], 11.4 mM. For the same molecule, the IC10 in [13] came to 2.4 mM; with A549 [17], 5.1 mM. In the data set on Aorta [14], the inhibition result was “inactive”.
In the case of `CCOP(=O)(OCC)C(C)(C)/[N+]([O-])=C/c1ccccc1`, the Activity in data set [1] was determined as 19%; in data set [11], 0.02 equiv; in the data set with Aorta [15], 30%. In addition, the Rmax is 75% in the data set on Aorta [2] and 100% with Aorta [3]. For the same molecule, the EC50 with Aorta [5] was 0.148 µM; in data set [19] it was > 1 mM. In addition, the IC50 in [7] came to 0.375 mM; in the data set with A549 [9], 12.4 mM; in the data set on A549 [16], 10.8 mM; in the data set on A549 [18] it was 12.6 mM. The 10% effect concentration (IC10) turned out to be 1.1 mM in data set [13] and 4.9 mM in the data set on A549 [17]. In the data set on Aorta [14], the inhibition result was “Active”.
Take `CC(C)(C)N([O])C(O)c1ccccc1` (configuration not stated): the half-life in [23] is 1.5 min.
